Reference: patent US10329289B2, “6,7-dihydro-5H-pyrrolo[3,4-B]pyridin-5-one allosteric modulators of the M4 muscarinic acetylcholine receptor” (Merck Sharp & Dohme Corp., priority 2015, dated 2019)

These compounds were tested against T1, human M4 muscarinic acetylcholine receptor (Homo sapiens, UniProt P08173) (assay: human FLIPR-based M4 PAM assay (Ca2+ mobilization, CHO-K1 cells with human M4 receptor and Gαqi5)). Settings: acetylcholine at 20% of maximum response, read-out: M4 PAM IP.
T1 construct: expressed in transfected cells; host or cells: CHO-K1
T1 sequence (P08173 1-479): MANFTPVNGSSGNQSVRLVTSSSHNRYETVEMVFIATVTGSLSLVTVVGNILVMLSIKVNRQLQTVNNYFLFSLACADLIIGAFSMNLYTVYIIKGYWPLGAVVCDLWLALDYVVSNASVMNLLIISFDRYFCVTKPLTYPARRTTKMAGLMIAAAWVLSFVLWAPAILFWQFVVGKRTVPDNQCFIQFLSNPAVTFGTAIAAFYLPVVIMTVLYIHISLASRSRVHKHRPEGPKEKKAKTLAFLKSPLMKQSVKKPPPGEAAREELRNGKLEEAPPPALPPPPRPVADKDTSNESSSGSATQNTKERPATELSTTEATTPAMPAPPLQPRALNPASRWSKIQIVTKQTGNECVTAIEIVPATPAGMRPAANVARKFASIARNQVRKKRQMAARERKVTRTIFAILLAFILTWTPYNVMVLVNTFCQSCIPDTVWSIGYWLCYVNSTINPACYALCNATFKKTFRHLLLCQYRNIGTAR
Assay type: cell-based
In short: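 Calcium-mobilization (FLIPR) readout in dye-loaded CHO-K1 cells co-expressing human M4 receptor and Gαqi5. Potentiation measured against acetylcholine at a concentration giving 20% of maximal response, with an optional 70% addition; the reported value is the curve inflection point from a 4-parameter logistic fit.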

SMILES	EC50 [nM]
Cc1cc2c(nc1N1CCC(Oc3ccn4ccnc4c3)CC1)CNC2=O [Example 140, 2-(4-(imidazo[1,2-a]pyridin-7-yloxy)piperidin-1-yl)-3-methyl-6,7-dihydro-5H-pyrrolo[3,4-b]pyridin-5-one]	4710
Cc1cc2c(nc1N1CCC(Oc3cn[nH]c3)CC1)CNC2=O [Example 142, 2-(4-((1H-pyrazol-4-yl)oxy)piperidin-1-yl)-3-methyl-6,7-dihydro-5H-pyrrolo[3,4-b]pyridin-5-one]	270
Cc1cc2c(nc1N1CCC(Oc3ccc(O[C@@H](C)CO)nc3)CC1)CNC2=O [Example 143A, (S)-2-(4-((6-((1-hydroxypropan-2-yl)oxy)pyridin-3-yl)oxy)piperidin-1-yl)-3-methyl-6,7-dihydro-5H-pyrrolo[3,4-b]pyridin-5-one]	101
Cc1cc2c(nc1N1CCC(Oc3ccc(O[C@H](C)CO)nc3)CC1)CNC2=O [Example 143B, (R)-2-(4-((6-((1-hydroxypropan-2-yl)oxy)pyridin-3-yl)oxy)piperidin-1-yl)-3-methyl-6,7-dihydro-5H-pyrrolo[3,4-b]pyridin-5-one]	117
Cc1cc2c(nc1N1CCC(Oc3ccc4c(c3)CCNC4)CC1)CNC2=O [Example 144, 3-Methyl-2-(4-((1,2,3,4-tetrahydroisoquinolin-6-yl)oxy)piperidin-1-yl)-6,7-dihydro-5H-pyrrolo[3,4-b]pyridin-5-one]	316
Cc1cc2c(nc1N1CCC(Oc3cnc4c(c3)NCCO4)CC1)CNC2=O [Example 145, 2-(4-((2,3-dihydro-1H-pyrido[2,3-b][1,4]oxazin-7-yl)oxy)piperidin-1-yl)-3-methyl-6,7-dihydro-5H-pyrrolo[3,4-b]pyridin-5-one]	2160
Cc1cc2c(nc1N1CCC(Oc3ccc4c(c3)CNCC4)CC1)CNC2=O [Example 146, 3-methyl-2-(4-((1,2,3,4-tetrahydroisoquinolin-7-yl)oxy)piperidin-1-yl)-6,7-dihydro-5H-pyrrolo[3,4-b]pyridin-5-one]	286
Cc1cc2c(nc1N1CCC(Oc3ccc4c(c3)CNC4)CC1)CNC2=O [Example 147, 2-(4-(isoindolin-5-yloxy)piperidin-1-yl)-3-methyl-6,7-dihydro-5H-pyrrolo[3,4-b]pyridin-5-one]	313
Cc1cc2c(nc1N1CCC(Oc3ccc4c(c3)OCCN4)CC1)CNC2=O [Example 148, 2-(4-((3,4-dihydro-2H-benzo[b][1,4]oxazin-7-yl)oxy)piperidin-1-yl)-3-methyl-6,7-dihydro-5H-pyrrolo[3,4-b]pyridin-5-one]	31
Cc1nc2cc(OC3CCN(c4nc5c(cc4C)C(=O)NC5)CC3)ccc2[nH]1 [Example 149, 3-methyl-2-(4-((2-methyl-1H-benzo[d]imidazol-5-yl)oxy)piperidin-1-yl)-6,7-dihydro-5H-pyrrolo[3,4-b]pyridin-5-one]	1000
Cc1cc2c(nc1N1CCC(Oc3ccc(CO)cc3)CC1)CNC2=O [Example 151, 2-(4-(4-(hydroxymethyl)phen-oxy)piperidin-1-yl)-3-methyl-6,7-dihydro-5H-pyrrolo[3,4-b]pyridin-5-one]	32
Cc1cc2c(nc1N1CCC(Oc3ccnc(CO)c3)CC1)CNC2=O [Example 152, 2-(4-((2-(hydroxymethyl)pyridin-4-yl)oxy)piperidin-1-yl)-3-methyl-6,7-dihydro-5H-pyrrolo[3,4-b]pyridin-5-one]	1150
Cc1cc2c(nc1N1CCC(Oc3ccc4c(c3)c(C)nn4CCO)CC1)CNC2=O [Example 153, 2-(4-((1-(2-hydroxyethyl)-3-methyl-1H-indazol-5-yl)oxy)piperidin-1-yl)-3-methyl-6,7-dihydro-5H-pyrrolo[3,4-b]pyridin-5-one]	528
Cc1cc2c(nc1N1CCC(Oc3ccc4c(c3)OC[C@H]4CCO)CC1)CNC2=O [Example 154, (S)-2-(4-((3-(2-hydroxyethyl)-2,3-dihydrobenzofuran-6-yl)oxy)piperidin-1-yl)-3-methyl-6,7-dihydro-5H-pyrrolo[3,4-b]pyridin-5-one]	128
Cc1cc2c(nc1N1CCC(Oc3ccc(CO)nc3)CC1)CNC2=O [Example 155, 2-(4-((6-(hydroxymethyl)pyridin-3-yl)oxy)piperidin-1-yl)-3-methyl-6,7-dihydro-5H-pyrrolo[3,4-b]pyridin-5-one]	117
Cc1cc2c(nc1N1CCC(Oc3cncc(CO)c3)CC1)CNC2=O [Example 156, 2-(4-((5-(hydroxymethyl)pyridin-3-yl)oxy)piperidin-1-yl)-3-methyl-6,7-dihydro-5H-pyrrolo[3,4-b]pyridin-5-one]	1220
Cc1cc2c(nc1N1CCC(Oc3ccc4c(c3)CC[C@@H]4CCO)CC1)CNC2=O [Example 157A, (R)-2-(4-((1-(2-hydroxyethyl)-2,3-dihydro-1H-inden-5-yl)oxy)piperidin-1-yl)-3-methyl-6,7-dihydro-5H-pyrrolo[3,4-b]pyridin-5-one]	93
Cc1cc2c(nc1N1CCC(Oc3ccc4c(c3)CC[C@H]4CCO)CC1)CNC2=O [Example 157B, (S)-2-(4-((1-(2-hydroxyethyl)-2,3-dihydro-1H-inden-5-yl)oxy)piperidin-1-yl)-3-methyl-6,7-dihydro-5H-pyrrolo[3,4-b]pyridin-5-one]	144
Cc1cc2c(nc1N1CCC(Oc3ccc4c(c3)COC4)CC1)CNC2=O [Example 159, 2-[4-(1,3-Dihydro-2-benzofuran-5-yloxy)piperidin-1-yl]-3-methyl-6,7-dihydro-5H-pyrrolo[3,4-b]pyridin-5-one]	28
COC(=O)c1cc2c(nc1N1CCC(Oc3ccc(OC)nc3)CC1)CNC2=O [Example 160, methyl 2-(4-((6-methoxypyridin-3-yl)oxy)piperidin-1-yl)-5-oxo-6,7-dihydro-5H-pyrrolo[3,4-b]pyridine-3-carboxylate]	231
Cc1cc2c(nc1N1CCC(OCc3cccnc3)CC1)CNC2=O [Example 161, 3-Methyl-2-(4-(pyridin-3-ylmethoxy)piperidin-1-yl)-6,7-dihydro-5H-pyrrolo[3,4-b]pyridin-5-one]	1520
Cc1c(N2CC[C@@H](OCC3(C)CC3)[C@@H](F)C2)nc2c(c1C)C(=O)NC2 [Example 161A, 2-((3S,4R)-3-Fluoro-4-((1-methylcyclopropyl)methoxy)piperidin-1-yl)-3,4-dimethyl-6,7-dihydro-5H-pyrrolo[3,4-b]pyridin-5-one]	21
Cc1nc2ccc(O[C@@H]3CCN(c4nc5c(cc4C)C(=O)NC5)C[C@@H]3F)cc2o1 [Example 162, 2-((3S,4R)-3-fluoro-4-((2-methylbenzo[d]oxazol-6-yl)oxy)piperidin-1-yl)-3-methyl-6,7-dihydro-5H-pyrrolo[3,4-b]pyridin-5-one]	51
CO[C@@H]1Cc2ccc(OC3CCN(c4nc5c(cc4C)C(=O)NC5)CC3)cc2C1 [Example 162A, (R)-2-(4-((2-methoxy-2,3-dihydro-1H-inden-5-yl)oxy)piperidin-1-yl)-3-methyl-6,7-dihydro-5H-pyrrolo[3,4-b]pyridin-5-one]	59
CO[C@H]1Cc2ccc(OC3CCN(c4nc5c(cc4C)C(=O)NC5)CC3)cc2C1 [Example 162B, (S)-2-(4-((2-methoxy-2,3-dihydro-1H-inden-5-yl)oxy)piperidin-1-yl)-3-methyl-6,7-dihydro-5H-pyrrolo[3,4-b]pyridin-5-one]	47
